# From article PMC9747611 (Hypertension Research, 2022)
# Entries after “also recorded” stand apart in the source; their conditions may differ.
# Key:
# Assay type in all cases: in vivo, human
# [1] = Safety: adverse events, ECG, vital signs
# Method: (§1) Plasma PD measures included concentrations of aldosterone, 18-hydroxycorticosterone, corticosterone, 11-deoxycorticosterone, cortisol (free and total), 11-deoxycortisol, ACTH, sodium, chloride, and potassium. AUCs were calculated using a noncompartmental analysis and the linear trapezoidal/linear interpolation method. Urine PD measures included concentrations of aldosterone, cortisol (free and total), tetrahydroaldosterone, sodium, chloride, potassium, creatinine, and phosphorus. Other PD measures were seated, orthostatic, and positional changes in vital signs, as well as changes in body weight and BMI. Safety assessments involved adverse events, physical examinations, ECGs, orthostatic vital signs, and clinical laboratory evaluations.
# Subjects who received placebo were pooled into 2 treatment groups: placebo with low-salt diet and placebo with normal-salt diet. Descriptive statistics were calculated for PK, PD, and safety measures. […] Data are presented as change from baseline in least squares mean (90% CI) AUC0-12h of plasma aldosterone on days 1 and 10. The results of the exploratory dose proportionality power model were assessed using the Smith criteria (0.9031, 1.0969) and the less stringent Hummel criteria (0.6990, 1.3010).
# plasma cortisol = assay: Plasma and urine cortisol and 11-deoxycortisol (pharmacodynamics, with ACTH challenge in low-salt cohorts)
# Method: Cohorts 1 and 2 also underwent an ACTH (Cortrosyn^TM) challenge at baseline (day −1), 1 h after the first dose of study drug on day 1, and 1 h after the final dose of study drug on day 10. This was done to increase aldosterone and cortisol levels to more thoroughly evaluate the specificity of baxdrostat for targeting aldosterone synthase. The ACTH challenge consisted of an intravenous injection of 0.25 mg Cortrosyn^TM administered over 2 min after an overnight fast.
# Plasma and urine samples were analyzed to measure concentrations of baxdrostat and its primary metabolite (CIN-107-M), aldosterone and its precursors, cortisol and its precursor, and ACTH using a validated liquid chromatography tandem mass spectrometry method (LC-MS/MS). The quantifiable ranges for both baxdrostat and its metabolite CIN-107-M in plasma and urine were 0.05 to 50 ng/mL (low range) and 5 to 2500 ng/mL (high range), using baxdrostat-d5 and CIN-107-M-d3, respectively, as the internal standards. Plasma samples were extracted by protein precipitation with methanol, followed by analysis by LC-MS/MS with electrospray ionization in positive mode and multiple reaction monitoring. […]
# Plasma PD measures included concentrations of aldosterone, 18-hydroxycorticosterone, corticosterone, 11-deoxycorticosterone, cortisol (free and total), 11-deoxycortisol, ACTH, sodium, chloride, and potassium. AUCs were calculated using a noncompartmental analysis and the linear trapezoidal/linear interpolation method. […]
# Subjects who received placebo were pooled into 2 treatment groups: placebo with low-salt diet and placebo with normal-salt diet. Descriptive statistics were calculated for PK, PD, and safety measures. […] The results of the exploratory dose proportionality power model were assessed using the Smith criteria (0.9031, 1.0969) and the less stringent Hummel criteria (0.6990, 1.3010).
# [2] = Plasma electrolytes and renal function (pharmacodynamics)
# Method: as §1
# [3] = 0.5 mg once daily 10 days, normal-salt diet, n = 9
# [4] = 1.5 mg once daily 10 days, normal-salt diet, n = 9
# [5] = 2.5 mg once daily 10 days, low-salt diet, n = 9
# [6] = 2.5 mg once daily 10 days, normal-salt diet, n = 6
# [7] = 5.0 mg once daily 10 days, low-salt diet, n = 9
# [8] = 0.5-5.0 mg once daily for 10 days
# [9] = also with ACTH challenge in low-salt diet groups
structure (smiles),measurement,setting,value
CCC(=O)N[C@@H]1CCCc2c(-c3ccc4c(c3)CCC(=O)N4C)cncc21 [baxdrostat],Abdominal pain,[1]; [3],0 (0.0) n (%)
same,Anxiety,[1]; [3],0 (0.0) n (%)
same,Any AE,[1]; [3],1 (11.1) n (%)
same,Any TEAE,[1]; [3],1 (11.1) n (%)
same,Any TEAE leading to death,[1]; [3],0 (0.0) n (%)
same,Any TEAE leading to discontinuation,[1]; [3],0 (0.0) n (%)
same,Any drug-related treatment-emergent SAE,[1]; [3],0 (0.0) n (%)
same,Any treatment-emergent SAE,[1]; [3],0 (0.0) n (%)
same,Back pain,[1]; [3],0 (0.0) n (%)
same,Constipation,[1]; [3],0 (0.0) n (%)
same,Dizziness,[1]; [3],0 (0.0) n (%)
same,Dizziness postural,[1]; [3],0 (0.0) n (%)
same,Dry throat,[1]; [3],0 (0.0) n (%)
same,Dysphonia,[1]; [3],0 (0.0) n (%)
same,Eye irritation,[1]; [3],0 (0.0) n (%)
same,Headache,[1]; [3],1 (11.1) n (%)
same,Nausea,[1]; [3],0 (0.0) n (%)
same,Palpitations,[1]; [3],0 (0.0) n (%)
same,Presyncope,[1]; [3],0 (0.0) n (%)
same,Rhinitis,[1]; [3],0 (0.0) n (%)
same,Ventricular tachycardia,[1]; [3],0 (0.0) n (%)
same,Viral infection,[1]; [3],0 (0.0) n (%)
same,Abdominal pain,[1]; [4],0 (0.0) n (%)
same,Anxiety,[1]; [4],0 (0.0) n (%)
same,Any AE,[1]; [4],1 (11.1) n (%)
same,Any TEAE,[1]; [4],1 (11.1) n (%)
same,Any TEAE leading to death,[1]; [4],0 (0.0) n (%)
same,Any TEAE leading to discontinuation,[1]; [4],0 (0.0) n (%)
same,Any drug-related treatment-emergent SAE,[1]; [4],0 (0.0) n (%)
same,Any treatment-emergent SAE,[1]; [4],0 (0.0) n (%)
same,Back pain,[1]; [4],0 (0.0) n (%)
same,Constipation,[1]; [4],1 (11.1) n (%)
same,Dizziness,[1]; [4],0 (0.0) n (%)
same,Dizziness postural,[1]; [4],0 (0.0) n (%)
same,Dry throat,[1]; [4],0 (0.0) n (%)
same,Dysphonia,[1]; [4],0 (0.0) n (%)
same,Eye irritation,[1]; [4],0 (0.0) n (%)
same,Headache,[1]; [4],0 (0.0) n (%)
same,Nausea,[1]; [4],0 (0.0) n (%)
same,Palpitations,[1]; [4],0 (0.0) n (%)
same,Presyncope,[1]; [4],0 (0.0) n (%)
same,Rhinitis,[1]; [4],0 (0.0) n (%)
same,Ventricular tachycardia,[1]; [4],0 (0.0) n (%)
same,Viral infection,[1]; [4],0 (0.0) n (%)
same,Abdominal pain,[1]; [5],0 (0.0) n (%)
same,Anxiety,[1]; [5],0 (0.0) n (%)
same,Any AE,[1]; [5],3 (33.3) n (%)
same,Any TEAE,[1]; [5],3 (33.3) n (%)
same,Any TEAE leading to death,[1]; [5],0 (0.0) n (%)
same,Any TEAE leading to discontinuation,[1]; [5],0 (0.0) n (%)
same,Any drug-related treatment-emergent SAE,[1]; [5],0 (0.0) n (%)
same,Any treatment-emergent SAE,[1]; [5],0 (0.0) n (%)
same,Back pain,[1]; [5],0 (0.0) n (%)
same,Constipation,[1]; [5],0 (0.0) n (%)
same,Dizziness,[1]; [5],0 (0.0) n (%)
same,Dizziness postural,[1]; [5],1 (11.1) n (%)
same,Dry throat,[1]; [5],0 (0.0) n (%)
same,Dysphonia,[1]; [5],0 (0.0) n (%)
same,Eye irritation,[1]; [5],0 (0.0) n (%)
same,Headache,[1]; [5],1 (11.1) n (%)
same,Nausea,[1]; [5],0 (0.0) n (%)
same,Palpitations,[1]; [5],0 (0.0) n (%)
same,Presyncope,[1]; [5],1 (11.1) n (%)
same,Rhinitis,[1]; [5],0 (0.0) n (%)
same,Ventricular tachycardia,[1]; [5],0 (0.0) n (%)
same,Viral infection,[1]; [5],1 (11.1) n (%)
same,Abdominal pain,[1]; [6],0 (0.0) n (%)
same,Anxiety,[1]; [6],1 (16.7) n (%)
same,Any AE,[1]; [6],3 (50.0) n (%)
same,Any TEAE,[1]; [6],3 (50.0) n (%)
same,Any TEAE leading to death,[1]; [6],0 (0.0) n (%)
same,Any TEAE leading to discontinuation,[1]; [6],0 (0.0) n (%)
same,Any drug-related treatment-emergent SAE,[1]; [6],0 (0.0) n (%)
same,Any treatment-emergent SAE,[1]; [6],0 (0.0) n (%)
same,Back pain,[1]; [6],0 (0.0) n (%)
same,Constipation,[1]; [6],0 (0.0) n (%)
same,Dizziness,[1]; [6],1 (16.7) n (%)
same,Dizziness postural,[1]; [6],2 (33.3) n (%)
same,Dry throat,[1]; [6],1 (16.7) n (%)
same,Dysphonia,[1]; [6],0 (0.0) n (%)
same,Eye irritation,[1]; [6],1 (16.7) n (%)
same,Headache,[1]; [6],1 (16.7) n (%)
same,Nausea,[1]; [6],0 (0.0) n (%)
same,Palpitations,[1]; [6],0 (0.0) n (%)
same,Presyncope,[1]; [6],0 (0.0) n (%)
same,Rhinitis,[1]; [6],1 (16.7) n (%)
same,Ventricular tachycardia,[1]; [6],0 (0.0) n (%)
same,Viral infection,[1]; [6],0 (0.0) n (%)
same,Abdominal pain,[1]; [7],1 (11.1) n (%)
same,Anxiety,[1]; [7],0 (0.0) n (%)
same,Any AE,[1]; [7],3 (33.3) n (%)
same,Any TEAE,[1]; [7],3 (33.3) n (%)
same,Any TEAE leading to death,[1]; [7],0 (0.0) n (%)
same,Any TEAE leading to discontinuation,[1]; [7],0 (0.0) n (%)
same,Any drug-related treatment-emergent SAE,[1]; [7],0 (0.0) n (%)
same,Any treatment-emergent SAE,[1]; [7],0 (0.0) n (%)
same,Back pain,[1]; [7],1 (11.1) n (%)
same,Constipation,[1]; [7],0 (0.0) n (%)
same,Dizziness,[1]; [7],1 (11.1) n (%)
same,Dizziness postural,[1]; [7],0 (0.0) n (%)
same,Dry throat,[1]; [7],0 (0.0) n (%)
same,Dysphonia,[1]; [7],1 (11.1) n (%)
same,Eye irritation,[1]; [7],0 (0.0) n (%)
same,Headache,[1]; [7],1 (11.1) n (%)
same,Nausea,[1]; [7],0 (0.0) n (%)
same,Palpitations,[1]; [7],0 (0.0) n (%)
same,Presyncope,[1]; [7],0 (0.0) n (%)
same,Rhinitis,[1]; [7],0 (0.0) n (%)
same,Ventricular tachycardia,[1]; [7],0 (0.0) n (%)
same,Viral infection,[1]; [7],0 (0.0) n (%)
same,QT prolongation (electrocardiograms),[1]; [8],no QT prolongation
same,changes in seated heart rate or BP,[1]; [8],no clinically significant changes
same,subjects with a TEAE considered related to the study drug,[1]; all baxdrostat groups pooled,6 (14.3%)
same,severity of TEAEs,[1]; all subjects receiving baxdrostat,mild
same,effect on urine free cortisol,plasma cortisol; 24 h urine collections,no meaningful effect
same,effect on plasma 11-deoxycortisol,plasma cortisol; [9],no meaningful effect
same,effect on plasma cortisol (total or free),plasma cortisol; [9],no meaningful impact; also recorded: no meaningful effect
same,change in plasma potassium levels,[2]; [8],increases
same,change in plasma sodium levels,[2]; [8],mild dose-dependent decreases
same,reduction in glomerular filtration rate,[2]; once daily for 10 days,< 15%
